In series [1] the test system is Colo 205 doxorubicin-sensitive colon adenocarcinoma cells. The experiment in a line: MTT assay for cytotoxic effect, Colo 205. It is filed as cell-based, human. Conditions: 24 h incubation, triplicate, read-out: Colo205 (IC50 μM) mean. The method, then:
(§1) The human colon adenocarcinoma cell lines, the Colo 205 (ATCC-CCL-222) doxorubicin-sensitive parent and Colo 320/MDR-LRP (ATCC-CCL-220.1) resistant to anticancer agents expressing ABCB1, were purchased from LGC Promochem (Teddington, UK). […] The cell lines were incubated in a humidified atmosphere (5% CO2, 95% air) at 37 °C. The effects of increasing concentrations of the compounds on cell growth were tested in 96-well flat-bottomed microtiter plates. The 2-fold serial dilutions of the tested compounds were made starting with 100 μM. Then, 10^4 human colonic adenocarcinoma cells in 100 μL of the medium (RPMI-1640) were added to each well, except for the medium control wells. The adherent human embryonic lung fibroblast cell line (10^4/well) was seeded in EMEM medium in 96-well flat-bottomed microtiter plates for 4 h before the assay. The serial dilutions of the compounds were made in a separate plate starting with 100 μM and then transferred to the plates containing the adherent corresponding cell line. Culture plates were incubated at 37 °C for 24 h; at the end of the incubation period, 20 μL of MTT (thiazolyl blue tetrazolium bromide) solution (from a 5 mg/mL stock solution) was added to each well. After incubation at 37 °C for 4 h, 100 μL of sodium dodecyl sulfate (SDS) solution (10% SDS in 0.01 M HCl) was added to each well, and the plates were further incubated at 37 °C overnight. Cell growth was determined by measuring the optical density (OD) at 540 nm (ref 630 nm) with a Multiscan EX ELISA reader (Thermo Labsystems, Cheshire, WA, USA). […] IC50 values and the SD of triplicate experiments were calculated by using GraphPad Prism software version 5.00 for Windows with nonlinear regression curve fit (GraphPad Software, San Diego, CA, USA; www.graphpad.com).

Series [2] relates to Colo 320/MDR-LRP resistant colon adenocarcinoma cells. Nature of the series: MTT assay for cytotoxic effect, Colo 320. It is filed as cell-based, human. Conditions: 24 h incubation, triplicate, read-out: Colo320 (IC50 μM) mean. The method, then:
as §1
(In general: Tetrazolium dyes change colour on reduction, which living cells bring about.)

Series [3] in a line: MTT assay for cytotoxic effect, MRC-5. It is filed as cell-based, human. Particulars: human. The method, then: as §1
For series [4], the target named is P-glycoprotein (ABCB1) in MDR Colo 320 cells (Homo sapiens, UniProt P08183). Nature of the series: Rhodamine 123 accumulation assay (P-gp efflux pump inhibition). It is filed as cell-based. The method, then:
The inhibitory activities of compounds 1–3, 5, and 6 on efflux function were evaluated by measuring the intracellular accumulation of rhodamine 123, a well-known P-glycoprotein substrate fluorescent dye, within the Colo320 MDR cells. Tariquidar, a strong P-gp inhibitor, was used as positive control. All tested compounds were dissolved in DMSO, and the final concentration (2.00%) of the solvent was investigated for any effect on the retention of rhodamine 123. […] The cell numbers of the human colon adenocarcinoma cell lines were adjusted to 2 × 10^6 cells/mL, resuspended in serum-free RPMI 1640 medium, and distributed in 0.5 mL aliquots into Eppendorf centrifuge tubes. […] DMSO at 2% v/v was used as solvent control. Next, 10 μL (5.2 μM final concentration) of the fluorochrome and ABCB1 substrate rhodamine 123 (Sigma) were added to the samples, and the cells were incubated for a further 20 min at 37 °C, washed twice, and resuspended in 1 mL of PBS for analysis. The fluorescence of the cell population was measured with a PartecCyFlow flow cytometer (Partec, Münster, Germany). The FAR was calculated as the quotient between FL-1 of the treated/untreated resistant Colo 320 cell line over the treated/untreated sensitive Colo 205 cell line according to the following equation: [drawing 2]

The subject of series [5] is Colo 320 colon adenocarcinoma cell line. Nature of the series: Checkerboard combination assay with doxorubicin. It is filed as cell-based, human. Conditions: for interaction (type of interaction with doxorubicin): Colo 320, based on combination indices; for CI at ED50 (combination index value at the 50% growth inhibition dose): with doxorubicin, Colo 320, 72 h, at best ratio. The method, then:
A checkerboard microplate combination assay was performed, which is a widely used in vitro method for the assessment of drug interactions. […] The assay was carried out on the Colo 320 colon adenocarcinoma cell line. The final concentration of the compounds and doxorubicin used in the combination experiment was chosen in accordance with their cytotoxicity toward this cell line. The dilutions of doxorubicin were made in a horizontal direction in 100 μL, and the dilutions of the compounds vertically in the microtiter plate in a 50 μL volume. Then, 6 × 10^3 of Colo 320 cells in 50 μL of the medium were added to each well, except for the medium control wells. The plates were incubated for 72 h at 37 °C in a 5% CO2 atmosphere. The cell growth rate was determined after MTT staining. At the end of the incubation period, 20 μL of MTT solution (from a stock solution of 5 mg/mL) was added to each well. After incubation at 37 °C for 4 h, 100 μL of SDS solution (10% in 0.01 M HCI) was added to each well, and the plates were further incubated at 37 °C overnight. OD was measured at 540 nm (ref 630 nm) with a Multiscan EX ELISA reader.

In series [6] the test system is MRC-5 embryonic lung fibroblast cell line. The experiment in a line: MTT assay for cytotoxic effect, MRC-5. It is filed as cell-based, human. Conditions: MTT, 24 h incubation, triplicate. The method, then:
as §1

For series [7], the system named is sensitive (Colo 205) human colon adenocarcinoma cells. More on the design: method as in PMID 33809760. Conditions: sensitive Colo 205 cells; cited from earlier work.
The subject of series [8] is resistant (Colo 320) human colon adenocarcinoma cells. More on the design: method as in PMID 33809760. Conditions: resistant Colo 320 cells; cited from earlier work.
Series [9] relates to panel of 71 human cancer cells from 15 tumor types. More on the design: method as in PMID 29931585. Particulars: against 27 cell lines of a panel of 71 human cancer cells; read-out: cytotoxicity IC50; cited from earlier work.
The mark [10] stands for this setting: MRC-5 embryonic lung fibroblast cells, MTT, 24 h incubation, triplicate, read-out: MRC-5 (IC50 μM) mean.

Here are results for 10 compounds from paper PMC9040055, “Triterpenes from Pholiota populnea as Cytotoxic Agents and Chemosensitizers to Overcome Multidrug Resistance of Cancer Cells” (Journal of Natural Products, 2022).

What is called IC50 is the concentration needed to halve the response being measured.

Entries after “also recorded” stand apart in the source; their conditions may differ. Where two headings read alike, the source gives them in different places.

P-glycoprotein (ABCB1) in MDR Colo 320 cells, sequence (P08183 whole entry): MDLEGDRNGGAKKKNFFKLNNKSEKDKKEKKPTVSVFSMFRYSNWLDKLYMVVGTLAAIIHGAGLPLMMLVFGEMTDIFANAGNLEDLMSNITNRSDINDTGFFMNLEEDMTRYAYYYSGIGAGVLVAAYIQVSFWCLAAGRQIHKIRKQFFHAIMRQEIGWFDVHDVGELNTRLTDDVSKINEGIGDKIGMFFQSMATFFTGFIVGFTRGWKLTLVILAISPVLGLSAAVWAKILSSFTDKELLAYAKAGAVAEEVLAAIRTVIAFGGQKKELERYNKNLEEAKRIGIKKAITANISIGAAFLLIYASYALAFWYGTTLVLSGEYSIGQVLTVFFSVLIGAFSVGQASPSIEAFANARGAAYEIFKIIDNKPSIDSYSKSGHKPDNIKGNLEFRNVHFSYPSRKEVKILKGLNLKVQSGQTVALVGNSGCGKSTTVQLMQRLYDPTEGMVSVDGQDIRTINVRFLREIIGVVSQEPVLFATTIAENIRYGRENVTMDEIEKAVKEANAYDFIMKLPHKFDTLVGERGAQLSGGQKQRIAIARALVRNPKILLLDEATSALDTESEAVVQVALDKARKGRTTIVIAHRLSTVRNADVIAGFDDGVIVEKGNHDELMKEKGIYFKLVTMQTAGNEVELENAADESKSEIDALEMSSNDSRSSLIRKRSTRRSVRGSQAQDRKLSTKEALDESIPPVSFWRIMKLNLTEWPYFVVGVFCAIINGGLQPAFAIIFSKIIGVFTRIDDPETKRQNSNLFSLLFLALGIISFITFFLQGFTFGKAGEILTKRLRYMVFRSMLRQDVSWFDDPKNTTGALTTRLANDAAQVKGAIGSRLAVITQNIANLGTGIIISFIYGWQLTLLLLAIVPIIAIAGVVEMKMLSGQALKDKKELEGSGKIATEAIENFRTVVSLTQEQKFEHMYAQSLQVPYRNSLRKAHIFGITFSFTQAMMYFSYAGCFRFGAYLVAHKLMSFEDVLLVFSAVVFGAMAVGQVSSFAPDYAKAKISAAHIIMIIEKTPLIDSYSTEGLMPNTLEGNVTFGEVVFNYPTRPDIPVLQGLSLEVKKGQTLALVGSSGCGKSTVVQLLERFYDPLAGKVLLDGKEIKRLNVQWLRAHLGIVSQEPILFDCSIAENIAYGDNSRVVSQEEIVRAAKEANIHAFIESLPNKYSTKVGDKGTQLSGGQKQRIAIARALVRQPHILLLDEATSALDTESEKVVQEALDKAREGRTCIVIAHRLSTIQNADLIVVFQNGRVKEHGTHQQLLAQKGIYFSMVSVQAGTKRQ

On to `CC(=O)O[C@H]1[C@H](OC(=O)C[C@](C)(O)CC(=O)O)C[C@]2(C)C3=C(C(=O)C[C@H]2C1(C)C)[C@]1(C)CC[C@H]([C@H](C)CCC(=O)C(C)(C)O)[C@@]1(C)CC3` [compound 1, pholiol A], for which the IC50 in [1] (Homo sapiens, COLO 205, 24 h) was > 100 µM. Besides, the IC50 in series [2] (Homo sapiens, COLO 320, 24 h) was > 100 µM. Moreover, the IC50 at 24 h in [3] (MRC-5 (IC50 μM) mean) was > 100 µM. Moreover, in [4] (human, 20 min, 20 μM), the “FAR (fluorescence activity ratio)” value is 3.418, the FL-1 came to 39.600 and the “Peak Ch” value amounted to 42.200.

Consider `COC(=O)C[C@@](C)(O)CC(=O)O[C@@H]1C[C@]2(C)C3=C(C(=O)C[C@H]2C(C)(C)[C@H]1OC(C)=O)[C@]1(C)CC[C@H]([C@H](C)CCC(=O)C(C)(C)O)[C@@]1(C)CC3` [compound 2, pholiol B], for which the IC50 in [1] (listed as Pholiol B (2)) is 67.9 µM; in series [1], > 25 µM; in series [2] (listed as Pholiol B (2)), 61.5 µM; in series [2], > 25 µM. Also, the “FAR (fluorescence activity ratio)” value in [4] (human, 20 min, 20 μM) came out at 6.880. The same compound displayed an FL-1 in series [4] (human, 20 min, 20 μM) of 79.700. In addition, the “Peak Ch” value in [4] (human, 20 min, 20 μM) was 77.700. The “interaction (type of interaction with doxorubicin)” value (shortened to “interaction”) in [5] was “synergistic”; in series [5] (listed as pholiol B (2)), “synergism”. Besides, the “CI at ED50 (combination index value at the 50% growth inhibition dose)” value in series [5] was 0.348.

Regarding `CC(=O)O[C@H]1[C@H](OC(=O)C[C@](C)(O)CC(=O)O)C[C@]2(C)C3=C(CC[C@H]2C1(C)C)[C@]1(C)CC[C@H]([C@H](C)CCC(=O)C(C)(C)O)[C@@]1(C)[C@H](O)C3` [compound 3, pholiol C], in series [1] (Homo sapiens, COLO 205, 24 h), the IC50 was > 100 µM. The half-inhibitory concentration (IC50) in [2] (Homo sapiens, COLO 320, 24 h) is > 100 µM. Further, the IC50 at 24 h in series [3] (MRC-5 (IC50 μM) mean) is > 100 µM. Further, in [4] (human, 20 min, 20 μM), the “FAR (fluorescence activity ratio)” value is recorded as 0.967, the FL-1 is 11.200 and the “Peak Ch” value was determined as 18.400.

Regarding `COC(=O)C[C@@](C)(O)CC(=O)O[C@@H]1C[C@]2(C)C3=C(CC[C@H]2C(C)(C)[C@H]1OC(C)=O)[C@]1(C)CC[C@H]([C@H](C)CCC(=O)C(C)(C)O)[C@@]1(C)[C@H](O)C3` [compound 4, pholiol D], the 50% inhibitory concentration (IC50) in series [1] (listed as Pholiol D (4)) is 51.4 µM; in [1], > 25 µM; in [2] it was > 25 µM; in series [2] (Homo sapiens, COLO 320, 24 h) it was 48.9 µM. For the same compound, the “interaction” value in series [5] is “synergistic”; in series [5] (listed as pholiol D (4)), “Synergism”. In series [5], the “CI at ED50 (combination index value at the 50% growth inhibition dose)” value was determined as 0.660.

As to `C/C(=C\CC/C=C(\C)CC/C=C(\C)CC[C@H](O)C(C)(C)O)CC/C=C(\C)CC[C@H](O)C(C)(C)O` [compound 5, (3S,6E,10E,14E,18E,22S)-2,3,22,23-tetrahydroxy-2,6,10,15,19,23-hexamethyl-6,10,14,18-tetracosatetraene], the IC50 is > 25 µM in series [1]; 26.7 µM in series [1] (Homo sapiens, COLO 205, 24 h); > 25 µM in series [2]; 27.5 µM in series [2] (Homo sapiens, COLO 320, 24 h); > 25 µM in series [6]. Also, the IC50 at 24 h in [3] (setting [10]) worked out at 29.1 µM. Besides, the “FAR (fluorescence activity ratio)” value in series [4] (conc. 20 μM, rhodamine 123, Colo 320 vs Colo 205) was 6.638. Also, the “P-gp MDR efflux pump inhibitory activity (in words)” value in [4] (resistant Colo320 cells, rhodamine 123 accumulation) is “inhibition of P-gp MDR efflux pump activity; also recorded: capacity to inhibit the efflux-pump; also recorded: moderate P-gp inhibitory activity”. In addition, the “interaction” value is recorded as “very strong synergistic; also recorded: synergistic” in [5] and “very strong synergism” in [5] (listed as compound 5). Further, the “CI at ED50 (combination index value at the 50% growth inhibition dose)” value in series [5] was determined as 0.082.

`CC(C)[C@@H](C)/C=C/[C@@H](C)[C@H]1CC[C@H]2C3=CC=C4C[C@@H](O)CC[C@]4(C)[C@H]3CC[C@]12C` [compound 6, ergosterol] had an IC50 at 24 h in series [3] (MRC-5 (IC50 μM) mean) of 0.5 µM. Also, in series [5] (listed as ergosterol (6)), the “interaction” value was “additive effect; also recorded: nearly additive”.

For `COc1cccc2c1C(=O)c1c(O)c3c(c(O)c1C2=O)C[C@@](O)(C(=O)CO)C[C@@H]3O[C@H]1C[C@H](N)[C@H](O)[C@H](C)O1` [doxorubicin, reference compound], the IC50 in [1] was 2.5 µM; in [2], 7.4 µM. In addition, the IC50 at 24 h in series [3] (setting [10]) is > 20 µM.

In the case of `CC(C)[C@@H](C)C=C[C@@H](C)[C@H]1CC[C@H]2C3=CCC4CC(=O)CC[C@]4(C)[C@H]3CC[C@]12C` (stereo partly shown) [ergosta-7,22-diene-3-one], the results for the IC50 in [7] and in [8] were 11.6 ± 1.7 µM and 8.4 ± 1.1 µM, respectively.

Regarding `CC(C)=CCC[C@@H](C)[C@@H]1CC[C@]2(C)C3=C(CC[C@@]12C)[C@@]1(C)CC[C@H](O)C(C)(C)[C@@H]1CC3` [euphol], in series [9], the IC50 was < 10 µM.

For the compound `COc1cc2c(cc1OC)CN(CCc1ccc(NC(=O)c3cc(OC)c(OC)cc3NC(=O)c3cnc4ccccc4c3)cc1)CC2` [tariquidar, reference compound], the “FAR (fluorescence activity ratio)” value in series [4] (conc. 0.2 μM, positive control, rhodamine 123) is 5.533.
